Residues, ends and D or L forms follow the SMILES beside them. *: point of attachment. Cbz = O=C(OCc1ccccc1)*; CH2F = FC*
Tests used:
Format in all cases: cell-based, human
MRC-5 cells = conditions: for cell death of MRC-5 cells: within the first 24 h of exposure, anti-Fas and TNF-α only in the presence of CHX, phase microscope
Method: (§1) Tumor necrosis factor receptor 1 (TNF-R1)-mediated apoptosis was induced by exposure of HeLa and MRC-5 cells to tumor necrosis factor-α (TNF-α) (Sigma, 10-60 ng/mL)+CHX (10-30 μg/mL). Fas-mediated apoptosis was induced by exposure of cells to an anti-Fas antibody (Coulter, 7C11 antibody at 0.2-4 μg/mL)+CHX (10-30 μg/mL). The degree of cell death was determined by the visual scoring of surviving cells, in representative fields, under a phase microscope.
The time-course of apoptosis was also analyzed by examining the expression of phosphatidylserine on the cell surface, as detected with FITC-labeled Annexin V, and by a dye-exclusion test using propidium iodide. These two tests were performed with an ApoAlert Annexin V Apoptosis kit (Clontech) in accordance with the manufacturer's recommendations, on a flow cytometer (FACScan, Becton-Dickinson).
These experiments were performed on MRC-5, a normal human fibroblast cell line which can be productively infected by HCMV in cell culture. The present inventors first examined whether infection of cells with HCMV alters the cell's sensitivity to Fas- or TNF-R1-mediated apoptosis.

[1] = tested on: HCMV-infected MRC-5 cells; test: Apoptosis resistance of HCMV-infected MRC-5 cells in presence of viral DNA polymerase inhibitors; conditions: concentration sufficient to inhibit viral replication; challenge two days later with anti-Fas antibody+CHX or TNF-α+CHX
Source text: To discriminate between these two mechanisms, MRC-5 cells were infected with HCMV in the presence (or absence) of inhibitors of viral DNA polymerase, such as phosphonacetic acid or gancyclovir (Huang, 1975; Crumpacker, 1996) which prevent the expression of the late genes of HCMV in the host cell (Mocarski, 1996).
MRC-5 cells uninfected (FIG. 3A) or infected with HCMV (FIG. 3B) were either untreated, or treated with either phosphonacetic acid or gancyclovir at a concentration sufficient to inhibit viral replication (Huang, 1975; Crumpacker, 1996). Two days later these cells were challenged with either anti-Fas antibody+CHX or TNF-α+CHX (FIGS. 3A and 3B). Although nearly all non-infected MRC-5 cells underwent apoptosis, irrespective of the presence or absence of phosphonacetic acid or gancyclovir, a major fraction of cells exposed to HCMV survived the challenge with the apoptotic stimuli in the absence of the viral DNA polymerase inhibitors. Further, a somewhat smaller but still large fraction of cells survived in the presence of the inhibitors. Thus, the insensitivity of HCMV-infected cells to apoptosis was not abolished by these drugs.

HeLa cells = test: Transient transfection apoptosis assay in HeLa cells (anti-Fas antibody+CHX or TNF-α+CHX); conditions: for protection of HeLa cells at very low plasmid concentration: 0.1% to 1% of the total DNA transfected, mixed with control vector, anti-Fas antibody+CHX; for β-gal levels after anti-Fas antibody+CHX treatment: plasmids diluted several hundred fold, β-gal marker plasmid
Method: as §1, with “microscope. A similar degree of cell death occurred in fibroblasts when examined 5 to 28 h after the start of exposure, or a similar degree of cell death occurred in HeLa cells when examined 9-28 h after the start of exposure. Further, a similar degree of cell death for a given reagent was produced when any concentration within the range indicated above was used.” for “microscope.”
The degree of cell death in cells transfected with an indicator plasmid expressing E. coli β-galactosidase was determined by either a β-galactosidase ELISA (Boehringer Mannheim), in accordance with the manufacturer's recommendations, or by visually scoring, under a microscope, positive blue cells, expressing β-galactosidase, after staining them with X-gal.
HeLa cells were transiently co-transfected with an expression plasmid vector, pME18S, carrying a polynucleotide sequence encoding IE1 or IE2 (FIG. 5, “IE1” and “IE2,” respectively), and a vector carrying the β-galactosidase gene (pCMVβ, Clontech). As a positive control, HeLa cells were transiently co-transfected with pCMVβ and a vector carrying a polynucleotide sequence encoding an anti-apoptotic polypeptide, such as the adenovirus E1B 19K or baculovirus p35.
Expression of IE1 (approx. 72 kDa) and IE2 (approx. 86 kDa) in the transfected HeLa cells was confirmed by Western blot analysis, by immunofluorescence visually examined under a fluorescence microscope, and by transactivation activity which led to an elevation of the vector-CMV-promoter-driven β-galactosidase expression which was increased 2- to 5-fold, as measured by a β-galactosidase ELISA (data not shown). Apoptosis was induced by incubating the transfected cells for 24 h with either TNF-α+CHX, or anti-Fas antibody+CHX. The surviving cells were stained with X-gal, a chromogenic substrate of β-galactosidase, and then the blue-stained cells were scored (FIG. 5).
To identify HCMV genes that can suppress apoptosis induced by Fas-ligation, the present inventors established a transient transfection assay in HeLa cells. The HeLa cells can be transfected at much higher efficiency than MRC-5 cells and are similar in their sensitivity towards anti-Fas antibody and TNF-α treatment. Enhanced survival of HeLa cells following anti-Fas antibody+CHX treatment was detected by elevated β-galactosidase (β-gal) levels produced by a transfected β-gal marker plasmid.
The deletion mutants were transiently expressed in HeLa cells, cultured in DMEM supplemented with 10% fetal bovine serum, and assayed for their ability to block Fas- or TNF-R1-mediated apoptosis. Transfections and apoptosis assays were performed as previously described (Goldmacher et al., 1999). Briefly, cells were transiently transfected with the expression vectors (purified with a Qiagen plasmid purification kit) using SuperFect transfection reagent (Qiagen) in accordance with the manufacturer's protocol. After 24 hours, cells were exposed to anti-Fas 7C11 antibody (Coulter, 0.5 μg/ml)+cyclohexamide (Sigma, 10 μg/ml) for 24 hours.
A genomic DNA library was cloned into pZeoSV2(+) plasmid (Invitrogen). Ten cosmids, pCM1007, pCM1015, pCM1017, pCM1029, pCM1035, pCM1039, pCM1040, pCM1052, pCM1058, and pCM1072, covering the AD169 genome (Fleckenstein et al., 1982, which is incorporated herein by reference), and pON2601 Toledo cosmid (Cha et al., 1996, which is incorporated herein by reference) containing unique HCMV sequences, were mixed in equal amounts and partially digested with Sau3AI (New England Biolabs, Beverly, Mass.). […]

[2] = tested on: Fas-mediated apoptotic signaling in HeLa cells; test: Western blot of Fas-mediated apoptotic signaling events in HeLa clones
Method: Cells were trypsinized, washed in Tris buffered saline, resuspended in a lysis buffer (150 mM NaCl, 5 mM EDTA, 50 mM Tris.HCl pH 8.0, 1% Triton X-100), freshly supplemented with phenylmethylsulfonyl fluoride (0.1 mM), leupeptin ([…]) and pepstatin (1 μg/mL), incubated on ice for 30 minutes, and centrifuged at 16,000 g for 15 minutes, at 4° C. Cytochrome c and procaspase 9 were detected in S-1 00 fractions of cells (Li et al., 1997, which is incorporated herein by reference).
The intracellular polypeptides were detected by Western blot analysis. Samples containing protein were electrophoretically resolved under reduced conditions, on Laemmli SDS-PAGE (Novex), after equal amounts of protein were loaded per well of the gel, detected using a standard Western blot protocol and a luminol-based ECL Western Blotting system (Amersham). The following antibodies were used in the Western blot analysis: anti-human Bid C-20 (Santa Cruz Biotechnology), 5F7 anti-human caspase 8 (Upstate Biotechnology), C210 anti-PARP (Biomol), 7H8.2C12 anti-cytochrome c (Pharmigen), B40 anti-human caspase 9 (Pharmigen), FITC-anti-mouse IgG (Sigma), HRP-anti-mouse IgG-F, (Pierce), HRP-anti-mouse IgG2b (Boehringer Mannheim), HRP-anti-rabbit IgG, and HRP-anti-mouse Ig (Amersham).
The impact of pUL37S on biochemical events involved in Fas-mediated apoptosis was examined by comparing control HeLa/pcDNA3 cells, which are sensitive to anti-Fas antibody plus CHX, to HeLa clones expressing either pUL37S or cellular Bcl-xL, both of which are resistant to Fas-mediated apoptosis. Ligation of Fas triggers the recruitment and activation of caspase 8 through the adapter molecule FADD (Ashkenazi et al., 1998). This process was not impaired by pUL37S since pro-caspase 8 was processed in pUL37S-expressing cells similar to its processing in either Bcl-xL-expressing cells, or control cells within 4 h of the exposure to anti-Fas antibody plus CHX, but not CHX alone (FIG. 16A). Fas-signaling is connected to mitochondrial events in apoptosis through Bid, a pro-apoptotic BH3 polypeptide that is proteolyzed by caspase 8 and subsequently translocates to mitochondria where it triggers cytochrome c release (Li et al., 1998; Lu et al., 1998).

C[C@@H]1C[C@@H]([C@H](O)CC2CC(=O)NC(=O)C2)C(=O)[C@@H](C)C1 [CHX, Cycloheximide]
cell death of MRC-5 cells (MRC-5 cells): did not kill cells

COC(=O)C[C@H](NC(=O)[C@H](C)NC(=O)[C@@H](NC(=O)OCc1ccccc1)C(C)C)C(=O)CF [Z-VADfmk] (Cbz-Val-Ala-Asp(OMe)-CH2F)
effect on Fas- and TNF-R1-mediated MRC-5 cell death (MRC-5 cells; caspase inhibitor added with anti-Fas antibody or TNF-α +CHX): prevented

Nc1nc(O)c2ncn(COC(CO)CO)c2n1 [gancyclovir]
effect on insensitivity of HCMV-infected cells to apoptosis [1]: not abolished

O=C(O)CP(=O)(O)O [phosphonacetic acid]
effect on insensitivity of HCMV-infected cells to apoptosis [1]: not abolished

Bcl-2: human anti-apoptotic gene product
protection of HeLa cells at very low plasmid concentration (HeLa cells): detectable protection

Bcl-xL: human cellular anti-apoptotic polypeptide
cleavage of PARP ([2]; 4 h anti-Fas antibody plus CHX): inhibited
cytochrome c release ([2]; 4 h anti-Fas antibody plus CHX): not observed
processing of procaspase 9 ([2]; 4 h anti-Fas antibody plus CHX): inhibited
processing of pro-caspase 8 ([2]; within 4 h of anti-Fas antibody plus CHX): processed
protection of HeLa cells at very low plasmid concentration (HeLa cells): detectable protection
β-gal levels after anti-Fas antibody+CHX treatment (HeLa cells): enhanced β-gal levels

TNF-α
cell death of MRC-5 cells (MRC-5 cells): died

B1: p35: baculovirus anti-apoptotic polypeptide, positive control (protein, UniProt P08160 1-299, looked up)
Early 35 kDa protein: MCVIFPVEIDVSQTIIRDCQVDKQTRELVYINKIMNTQLTKPVLMMFNISGPIRSVTRKNNNLRDRIKSKVDEQFDQLERDYSDQMDGFHDSIKYFKDEHYSVSCQNGSVLKSKFAKILKSHDYTDKKSIEAYEKYCLPKLVDERNDYYVAVCVLKPGFENGSNQVLSFEYNPIGNKVIVPFAHEINDTGLYEYDVVAYVDSVQFDGEQFEEFVQSLILPSSFKNSEKVLYYNEASKNKSMIYKALEFTTESSWGKSEKYNWKIFCNGFIYDKKSKVLYVKLHNVTSALNKNVILNTIK
protection of HeLa cells at very low plasmid concentration (HeLa cells): detectable protection
survival of transfected cells after apoptosis induction (HeLa cells; HeLa cells, 24 h with either TNF-α+CHX or anti-Fas antibody+CHX, X-gal stained cells scored): survived
β-gal levels after anti-Fas antibody+CHX treatment (HeLa cells): enhanced β-gal levels

— patent US6605426B1, “Compounds, methods of screening, and in vitro and in vivo uses involving anti-apoptotic genes and anti-apoptotic gene products” (priority 1998, dated 2003)
